± gives the standard deviation of the averaged measurements.
Assays:
Experiment in all cases: level (log10 ratio to DMSO vehicle control); higher = higher biomarker level / cell amount than vehicle control
Conditions in all cases: in DMSO
[1] = compound: O=C(Cl)C(F)(F)C(F)(F)C(F)(F)C(=O)Cl [Hexafluoroglutaryl chloride]
Method: (§1)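 BioMAP Diversity Plus panel of 12 human primary cell co-culture systems (3C, 4H, LPS, SAg, BT, BF4T, BE3C, CASM3C, HDF3CGF, KF3CT, MyoF, Mphg). Compounds were added 1 h before stimulation and left for 24 h (MyoF 48 h; BT 72 h for soluble read-outs or 6 d for IgG). Biomarkers were read by ELISA, cytotoxicity by SRB, PBMC viability and proliferation by Alamar Blue. Each well value was divided by the mean of 8 DMSO control wells on the same plate and log10 transformed; duplicate blinded samples were tested at 4 concentrations.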

[2] = compound: OCCCCC(F)(F)C(F)(F)C(F)(F)C(F)(F)F [4:4 Fluorotelomer alcohol]
Method: as §1

Methotrexate = compound: CN(Cc1cnc2nc(N)nc(N)c2n1)c1ccc(C(=O)N[C@@H](CCC(=O)O)C(=O)O)cc1 [Methotrexate]
Method: as §1

[3] = compound: O=S(=O)(O)CCC(F)(F)C(F)(F)C(F)(F)C(F)(F)F [4:2 Fluorotelomer sulfonic acid]
Method: as §1

[4] = compound: O=C(CC(=O)C(F)(F)C(F)(F)C(F)(F)F)c1cccs1 [(Perfluorobutyryl)-2-thenoylmethane]
Method: as §1

[5] = compound: C=C(C)C(=O)OCC(F)(F)C(F)(F)C(F)(F)F [2,2,3,3,4,4,4-Heptafluorobutyl methacrylate]
Method: as §1

Row | Test System | level (log10) ([1]; 6700 nM) | level (log10) ([1]; 20000 nM) | level (log10) ([1]; 60000 nM) | level (log10) ([2]; 6700 nM) | level (log10) ([2]; 20000 nM) | level (log10) ([2]; 60000 nM) | level (log10) (Methotrexate; 1500 nM) | level (log10) (Methotrexate; 4400 nM) | level (log10) (Methotrexate; 13000 nM) | level (log10) (Methotrexate; 40000 nM) | level (log10) ([3]; 6700 nM) | level (log10) ([3]; 20000 nM) | level (log10) ([3]; 60000 nM) | level (log10) ([4]; 6700 nM) | level (log10) ([4]; 20000 nM) | level (log10) ([5]; 6700 nM) | level (log10) ([5]; 20000 nM) | level (log10) ([5]; 60000 nM)
1 | CASM3C:IL-6 | 0.006 ± 0.014 | -0.0145 ± 0.021 | 0.031 ± 0.017 | 0.0005 ± 0.016 | -0.0215 ± 0.025 | 0.0155 ± 0.077 | -0.035 ± 0.041 | -0.087 ± 0.076 | -0.009 ± 0.023 | -0.039 ± 0.041 | 0.0015 ± 0.0092 | -0.0065 ± 0.0078 | 0.001 ± 0.028 | -0.006 ± 0.028 | -0.068 ± 0.013 | 0.004 ± 0.031 | 0.0105 ± 0.028 | 0.022 ± 0.0071
2 | MyoF:alpha-SM Actin | -0.0115 ± 0.018 | -0.0065 ± 0.057 | -0.0105 ± 0.035 | 0.025 ± 0.041 | 0.0195 ± 0.04 | 0.041 ± 0.055 | -0.001 ± 0.0028 | -0.0225 ± 0.0092 | -0.008 ± 0.0071 | -0.017 ± 0.033 | 0 ± 0.052 | 0.022 ± 0.0028 | 0.035 ± 0.0028 | -0.0445 ± 0.042 | -0.0865 ± 0.059 | -0.0195 ± 0.0078 | -0.0025 ± 0.0035 | -0.002 ± 0.011
3 | lMphg:M-CSF | 0.011 | -0.021 ± 0.031 | 0.018 ± 0.011 | -0.0185 ± 0.019 | -0.0095 ± 0.0035 | 0.0105 ± 0.042 | -0.03 ± 0.034 | -0.013 ± 0.025 | -0.0295 ± 0.026 | -0.013 ± 0.085 | -0.0105 ± 0.0078 | -0.024 ± 0.0099 | -0.0175 ± 0.0035 | -0.0285 ± 0.0021 | -0.072 ± 0.0085 | -0.011 ± 0.0085 | -0.02 ± 0.02 | -0.021 ± 0.0071
4 | BE3C:PAI-I | -0.0285 ± 0.053 | -0.0715 ± 0.059 | -0.0935 ± 0.094 | -0.026 ± 0.02 | -0.002 ± 0.031 | 0.011 | -0.0595 ± 0.015 | -0.031 ± 0.045 | -0.051 ± 0.048 | -0.0665 ± 0.084 | -0.0075 ± 0.0035 | -0.014 ± 0.0085 | -0.008 ± 0.017 | -0.127 ± 0.023 | -0.363 ± 0.035 | -0.0505 ± 0.043 | -0.003 ± 0.055 | 0.017 ± 0.064
5 | KF3CT:IL-1alpha | -0.0085 ± 0.0078 | 0.0095 ± 0.013 | -0.012 ± 0.018 | 0.0145 ± 0.029 | 0.005 ± 0.042 | 0.019 ± 0.03 | -0.0145 ± 0.013 | -0.0225 ± 0.032 | -0.002 ± 0.052 | -0.0145 ± 0.039 | -0.0155 ± 0.0021 | -0.0355 ± 0.0078 | -0.021 ± 0.021 | 0.0165 ± 0.005 | 0.009 ± 0.0028 | -0.005 ± 0.0071 | -0.007 ± 0.014 | -0.0005 ± 0.016
6 | HDF3CGF:Collagen III | -0.027 ± 0.0028 | -0.06 ± 0.031 | -0.023 ± 0.028 | -0.0165 ± 0.029 | -0.0105 ± 0.019 | 0.011 ± 0.05 | 0.0115 ± 0.061 | -0.002 ± 0.072 | 0.004 ± 0.013 | -0.026 ± 0.086 | -0.0795 ± 0.13 | -0.0585 ± 0.14 | -0.0265 ± 0.09 | 0.0155 ± 0.013 | -0.452 ± 0.0042 | -0.0545 ± 0.1 | -0.075 ± 0.031 | -0.034 ± 0.048
7 | KF3CT:CXCL9/MIG | 0.0025 ± 0.011 | 0.0085 ± 0.011 | 0.008 ± 0.0085 | 0.007 ± 0.023 | 0.0105 ± 0.011 | 0.0125 ± 0.022 | 0.001 ± 0.0028 | 0.002 ± 0.016 | -0.0005 ± 0.0021 | 0.001 ± 0.0014 | 0.0005 ± 0.0021 | 0.004 ± 0.016 | 0.0105 ± 0.016 | 0.0085 ± 0.0064 | 0.009 ± 0.0057 | 0.009 | 0 ± 0.0042 | 0.0005 ± 0.011
8 | MyoF:Decorin | -0.014 ± 0.016 | -0.0095 ± 0.026 | -0.006 ± 0.0099 | 0.0115 ± 0.0035 | -0.0015 ± 0.028 | 0.033 ± 0.057 | 0.0355 ± 0.037 | 0.0025 ± 0.026 | 0.0105 ± 0.016 | 0.0275 ± 0.0078 | -0.0075 ± 0.0078 | -0.012 ± 0.0014 | 0.004 ± 0.0028 | 0.0045 ± 0.011 | 0.0285 ± 0.022 | 0.018 ± 0.014 | 0.0075 ± 0.005 | 0.022 ± 0.0014
9 | KF3CT:TIMP-2 | -0.029 ± 0.023 | 0.003 ± 0.0099 | 0.02 ± 0.034 | 0.0135 ± 0.0064 | 0.0075 ± 0.019 | -0.0015 ± 0.015 | -0.029 ± 0.035 | -0.034 ± 0.069 | -0.0325 ± 0.06 | -0.0195 ± 0.088 | -0.0215 ± 0.023 | -0.0185 ± 0.042 | -0.0025 ± 0.0064 | -0.0365 ± 0.00071 | -0.05 ± 0.016 | -0.004 ± 0.016 | -0.0165 ± 0.00071 | -0.0035 ± 0.012
10 | lMphg:CXCL8/IL-8 | 0.023 ± 0.011 | 0.027 ± 0.018 | 0.0625 ± 0.05 | -0.04 ± 0.035 | -0.0355 ± 0.029 | 0.022 ± 0.021 | 0.0075 ± 0.046 | -0.017 | 0.003 ± 0.023 | 0.044 ± 0.0057 | -0.0295 ± 0.043 | -0.0215 ± 0.021 | 0.005 ± 0.031 | -0.022 ± 0.027 | 0.048 ± 0.011 | 0.037 ± 0.038 | 0.026 ± 0.021 | 0.027 ± 0.038
11 | CASM3C:M-CSF | -0.001 ± 0.0028 | 0.0095 ± 0.057 | 0.03 ± 0.051 | 0.0085 ± 0.011 | -0.005 ± 0.024 | 0.021 ± 0.047 | 0.0285 ± 0.013 | -0.051 ± 0.027 | -0.0455 ± 0.0021 | -0.0275 ± 0.081 | -0.0265 ± 0.011 | -0.02 ± 0.0028 | 0.001 ± 0.03 | 0.014 | 0.012 ± 0.04 | 0.003 ± 0.016 | 0.0245 ± 0.019 | 0.024 ± 0.0099
12 | KF3CT:CD54/ICAM-1 | -0.013 ± 0.0014 | -0.002 ± 0.0057 | -0.002 ± 0.0028 | 0.0095 ± 0.019 | -0.0025 ± 0.018 | 0.005 ± 0.024 | -0.0085 ± 0.012 | -0.011 ± 0.0014 | 0.006 ± 0.0071 | 0.007 ± 0.0042 | -0.006 ± 0.0085 | -0.0125 ± 0.0092 | -0.0125 ± 0.0078 | -0.0335 ± 0.00071 | -0.0115 ± 0.023 | 0.0015 ± 0.016 | -0.003 ± 0.016 | 0.0085 ± 0.005
13 | CASM3C:LDLR | -0.052 ± 0.03 | -0.0235 ± 0.025 | 0.0035 ± 0.035 | 0.016 ± 0.0042 | 0.0175 ± 0.022 | 0.03 ± 0.042 | 0.011 ± 0.0042 | 0.0465 ± 0.042 | 0.0205 ± 0.022 | 0.0455 ± 0.066 | -0.0145 ± 0.012 | 0.0015 ± 0.0021 | -0.0035 ± 0.025 | -0.044 ± 0.025 | -0.079 ± 0.033 | -0.0045 ± 0.036 | 0.006 ± 0.0042 | 0.0055 ± 0.0078
14 | 3C:CD54/ICAM-1 | 0.002 ± 0.0014 | -0.006 ± 0.013 | 0.0025 ± 0.035 | 0 ± 0.037 | -0.017 ± 0.041 | -0.002 ± 0.047 | 0.0065 ± 0.0064 | -0.0085 ± 0.005 | 0.0045 ± 0.013 | -0.002 ± 0.0085 | 0.001 ± 0.0014 | -0.0125 ± 0.0021 | 0.0045 ± 0.012 | -0.027 ± 0.021 | -0.0365 ± 0.00071 | 0.002 ± 0.0028 | 0.007 ± 0.0042 | 0.0135 ± 0.005
15 | lMphg:CCL2/MCP-1 | -0.005 ± 0.0099 | -0.0025 ± 0.019 | 0.0125 ± 0.015 | -0.0295 ± 0.037 | -0.0145 ± 0.00071 | 0.009 ± 0.0071 | 0.0115 ± 0.03 | 0.008 ± 0.035 | -0.0105 ± 0.033 | -0.0055 ± 0.021 | 0.0005 ± 0.047 | 0.006 ± 0.025 | -0.001 ± 0.0071 | -0.047 ± 0.031 | -0.27 ± 0.056 | -0.0335 ± 0.028 | -0.012 ± 0.0099 | -0.0115 ± 0.028
16 | KF3CT:CCL2/MCP-1 | -0.021 ± 0.016 | -0.007 ± 0.017 | 0.0075 ± 0.016 | -0.0035 ± 0.057 | 0.004 ± 0.044 | 0.0225 ± 0.042 | 0.052 ± 0.023 | -0.0125 ± 0.03 | -0.016 ± 0.024 | 0.0165 ± 0.0021 | -0.0205 ± 0.012 | -0.0125 ± 0.012 | -0.0015 ± 0.025 | 0.0205 ± 0.013 | 0.006 ± 0.0057 | 0.026 ± 0.014 | 0.008 ± 0.0085 | -0.0155 ± 0.0035

— the supplement of paper PMC10331698
